Measured values as given in patent publication US10273233B2, “Inhibitors of influenza viruses replication” (Vertex Pharmaceuticals Incorporated, priority 2015, dated 2019).
Read-outs that look alike come from different tables or passages of the source.

Legend:
[1] = 6-month solid-state (open dish) stability; format: physicochemical; settings: 6 months open dish; 40° C./75% RH, 5° C./60% RH, 25° C./60% RH, 40° C./dry
Experimental: A 6-month solid-state (open dish) stability study was performed for Hydrate 3 of Compound (1). Hydrate 3 of Compound (1) was stored for 6 months under the following conditions: 40° C./75% RH, 5° C./60% RH, 25° C./60% RH, and 40° C./dry.

[2] = Toxicology formulation stability in 0.5% MC; format: physicochemical; settings: 0.5% MC in water suspension at 1, 60 and 100 mg/mL; ambient and 5° C.; two weeks
Experimental: Hydrate 3 of Compound (1) was evaluated for chemical stability and homogeneity in 0.5% MC in water (suspension) at 1, 60 mg/mL and 100 mg/mL under ambient and refrigerated conditions (5° C.) for two weeks.

[3] = rat, in vivo
[4] = monkey, in vivo
[5] = Two week solubility study (final form); settings: Nitromethane
[6] = Intrinsic dissolution rate determination

CC(C)(C)[C@@H](CC(=O)O)Nc1nc(-c2c[nH]c3ncc(F)cc23)ncc1F [Hydrate 3 of Compound (1)]
chemical changes on storage [1]: no significant chemical changes
crystallinity on storage by XRPD [1]: remained crystalline
changes in purity (% Area) by HPLC [2]: no changes were observed
dose up to which exposures increase proportionally [3]: up to 500 mg/kg
dose up to which exposures increase proportionally [4]: up to 250 mg/kg
bulk density (Processing properties): 0.172 g/cc
tap density (Processing properties): 0.383 g/cc
average flow factor (FFc) (Processing properties; Ring Shear Testing (RST), good flow is 4-10): 6.8
tensile strength (Processing properties; at 180 MPa compression pressure): 2 MPa
Final Form (After two Weeks) [5]: Solvate
intrinsic dissolution rate (IDR) ([6]; FaSSGF): 0.020 mg/min/cm^2
intrinsic dissolution rate (IDR) ([6]; FaSSIF): 0.012 mg/min/cm^2
